target: T1, Deoxyhypusine hydroxylase (Plasmodium falciparum (isolate 3D7)) (UniProt Q8I701); test: MMV: Deoxyhypusine hydroxylase activity assay.; conditions: concentration not given here
T1 sequence (whole entry): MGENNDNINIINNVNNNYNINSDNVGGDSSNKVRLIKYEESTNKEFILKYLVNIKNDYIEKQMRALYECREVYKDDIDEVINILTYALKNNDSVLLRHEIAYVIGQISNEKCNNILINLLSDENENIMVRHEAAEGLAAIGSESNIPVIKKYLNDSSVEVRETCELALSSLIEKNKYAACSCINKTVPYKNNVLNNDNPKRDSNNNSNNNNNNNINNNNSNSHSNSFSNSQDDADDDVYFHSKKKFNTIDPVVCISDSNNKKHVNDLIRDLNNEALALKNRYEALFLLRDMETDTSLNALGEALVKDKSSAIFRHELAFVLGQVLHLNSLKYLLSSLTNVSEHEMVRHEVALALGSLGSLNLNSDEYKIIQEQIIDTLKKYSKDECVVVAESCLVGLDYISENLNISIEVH

inhibition [%]	Structure (SMILES)
38.8	COc1ccc(-c2nc3cc(Cc4ccc5[nH]c(-c6ccc(OC)cc6)nc5c4)ccc3[nH]2)cc1
43.3	CCOc1ccc(-c2nonc2NC(=O)c2cccc(C)c2)cc1OCC
35.9	c1ccc(Cn2c(N=Nc3c(Nc4ccccc4)ccc4ccccc34)nc3ccccc32)cc1

From ChEMBL document CHEMBL3301470, “MMV Malaria Box screening against Plasmodium falciparum Deoxyhypusine hydroxylase” (2015)
